From ChEMBL document CHEMBL1201862, “PubChem BioAssay data set” (2004)
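Compound exposure: 48 hours, 5 concentrations, 96-well plates. GI50: concentration for 50% inhibition of growth.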 Activity calls are given as the source filed them. No stated cut-off is given here; in the data, active = GI50 up to about 1.1 µM and inactive = higher.

Key:
Assay in all cases: NCI anticancer screen, dose series, 48 h
CCRF-CEM = system: CCRF-CEM
M14 = system: M14
RXF 393 = system: RXF 393
SN12C = system: SN12C
RPMI-8226 = system: RPMI-8226
K562 = system: K562
SF-295 = system: SF-295
NCI-H460 = system: NCI-H460
SK-MEL-2 = system: SK-MEL-2
HCT-116 = system: HCT-116
NCI-H23 = system: NCI-H23
HOP-62 = system: HOP-62
TK-10 = system: TK-10
IGROV-1 = system: IGROV-1
NCI-H226 = system: NCI-H226
CAKI-1 = system: CAKI-1
SK-OV-3 = system: SK-OV-3

Measured: GI50

C#CN1C(=O)c2c(c(-c3ccccc3)c(-c3ccc(Oc4ccc(-c5c(-c6ccccc6)c6c(c(-c7ccccc7)c5-c5ccccc5)C(=O)N(C#C)C6=O)cc4)cc3)c(-c3ccccc3)c2-c2ccccc2)C1=O
inactive: CCRF-CEM > 100 µM | M14 80.7 µM | RXF 393 30.8 µM | SN12C 30.1 µM | RPMI-8226 > 100 µM | K562 > 100 µM | SF-295 > 100 µM | NCI-H460 > 100 µM | SK-MEL-2 > 100 µM | HCT-116 > 100 µM | NCI-H23 > 100 µM | HOP-62 > 100 µM | TK-10 > 100 µM | IGROV-1 72.6 µM

CC(=O)CNC(=O)OC(C)(C)C
inactive: NCI-H226 > 100 µM | CCRF-CEM > 100 µM | M14 > 100 µM | RXF 393 > 100 µM | SN12C > 100 µM | CAKI-1 > 100 µM | K562 > 100 µM | SF-295 > 100 µM | NCI-H460 > 100 µM | SK-MEL-2 > 100 µM | HCT-116 > 100 µM | NCI-H23 > 100 µM | HOP-62 > 100 µM | SK-OV-3 > 100 µM | TK-10 > 100 µM | IGROV-1 > 100 µM

O=C(COc1ccc2c(=O)cc(-c3ccc(Cl)cc3)oc2c1)N1CCN(c2ccccc2)CC1
inactive: NCI-H226 > 100 µM | M14 > 100 µM | RXF 393 > 100 µM | SN12C 65.9 µM | CAKI-1 > 100 µM | RPMI-8226 > 100 µM | K562 4.56 µM | SF-295 > 100 µM | NCI-H460 > 100 µM | SK-MEL-2 > 100 µM | HCT-116 55.1 µM | NCI-H23 > 100 µM | HOP-62 > 100 µM | SK-OV-3 > 100 µM | TK-10 > 100 µM | IGROV-1 > 100 µM

COc1cc(C=O)c(-c2cc3c(cc2C2(C)OCCS2)OCO3)c(OC)c1OC (centres undefined)
inactive: NCI-H226 6.32 µM | CCRF-CEM 7.59 µM | M14 5.73 µM | RXF 393 7.38 µM | SN12C 13.5 µM | CAKI-1 11.6 µM | RPMI-8226 11.4 µM | K562 8.83 µM | SF-295 13.3 µM | NCI-H460 18.9 µM | SK-MEL-2 11.4 µM | HCT-116 8 µM | NCI-H23 21.9 µM | HOP-62 15.5 µM | SK-OV-3 13.6 µM | TK-10 57.8 µM | IGROV-1 28.2 µM

COc1ccc(-c2nc3c(nc2-c2ccc(OC)cc2)C(N)=NS(=O)(=O)N3)cc1
inactive: NCI-H226 > 100 µM | CCRF-CEM > 100 µM | RXF 393 > 100 µM | SN12C > 100 µM | CAKI-1 > 100 µM | RPMI-8226 > 100 µM | K562 > 100 µM | SF-295 > 100 µM | SK-MEL-2 > 100 µM | NCI-H23 > 100 µM | HOP-62 > 100 µM | SK-OV-3 > 100 µM | TK-10 > 100 µM | IGROV-1 > 100 µM

CCOc1ccc(N2C(=O)/C(=C/c3ccc(N(CCC#N)CCC#N)cc3)N=C2c2cc([N+](=O)[O-])ccc2Cl)cc1
inactive: NCI-H226 42.4 µM | M14 24.1 µM | RXF 393 12.2 µM | SN12C 63 µM | CAKI-1 14.8 µM | RPMI-8226 15.7 µM | K562 21.3 µM | SF-295 24.2 µM | NCI-H460 23.5 µM | SK-MEL-2 > 100 µM | HCT-116 21.6 µM | NCI-H23 40.8 µM | HOP-62 73.1 µM | SK-OV-3 > 100 µM | TK-10 58.1 µM

O=C(/C=C1/Nc2ccc([N+](=O)[O-])cc2NC1O)c1cccc([N+](=O)[O-])c1 (centres undefined)
inactive: NCI-H226 34.8 µM | CCRF-CEM 14.5 µM | M14 21.5 µM | RXF 393 23.6 µM | SN12C > 100 µM | CAKI-1 56.9 µM | K562 30.3 µM | SF-295 13.6 µM | NCI-H460 39.2 µM | HCT-116 26.2 µM | NCI-H23 36.6 µM | HOP-62 83.9 µM | SK-OV-3 20.3 µM | TK-10 35 µM | IGROV-1 > 100 µM

COC(=O)C1=C(C)N(NC(N)=O)C2(N)N(NC(N)=O)C(C)=C(C(=O)OC)C12C(=O)OC (centres undefined)
inactive: NCI-H226 > 100 µM | CCRF-CEM > 100 µM | M14 > 100 µM | SN12C > 100 µM | CAKI-1 > 100 µM | RPMI-8226 > 100 µM | K562 > 100 µM | SF-295 > 10 µM | NCI-H460 > 100 µM | SK-MEL-2 > 100 µM | HCT-116 > 100 µM | NCI-H23 > 100 µM | HOP-62 > 100 µM | SK-OV-3 > 100 µM | TK-10 > 100 µM | IGROV-1 > 100 µM

O=C(/C=C/c1ccc(OCCCCCCCCCCOc2ccc(/C=C/C(=O)c3ccc(Cl)cc3)cc2)cc1)c1ccc(Cl)cc1
inactive: NCI-H226 > 100 µM | CCRF-CEM > 100 µM | RXF 393 > 100 µM | SN12C > 100 µM | CAKI-1 > 100 µM | RPMI-8226 > 100 µM | K562 > 100 µM | SF-295 > 100 µM | NCI-H460 > 100 µM | SK-MEL-2 > 100 µM | NCI-H23 > 100 µM | HOP-62 > 100 µM | SK-OV-3 > 100 µM | TK-10 > 100 µM | IGROV-1 > 100 µM

Nc1nc2ncn(CC(O)CO)c2c(=S)[nH]1 (centres undefined)
inactive: NCI-H226 > 100 µM | CCRF-CEM > 100 µM | M14 > 100 µM | RXF 393 > 100 µM | SN12C > 100 µM | CAKI-1 > 100 µM | RPMI-8226 > 100 µM | K562 > 100 µM | SF-295 > 100 µM | NCI-H460 > 100 µM | SK-MEL-2 > 100 µM | HCT-116 > 100 µM | HOP-62 > 100 µM | SK-OV-3 > 100 µM | TK-10 > 100 µM | IGROV-1 > 100 µM

O=C1c2ccccc2C(=O)c2nc(-c3ccccc3)c(-c3ccccc3)nc21
inactive: NCI-H226 22.5 µM | CCRF-CEM > 100 µM | M14 5.69 µM | RXF 393 > 43.5 µM | CAKI-1 > 100 µM | RPMI-8226 > 100 µM | K562 > 100 µM | SF-295 11 µM | NCI-H460 5.83 µM | SK-MEL-2 10.8 µM | HCT-116 > 100 µM | NCI-H23 17.6 µM | HOP-62 33 µM | SK-OV-3 > 100 µM | TK-10 > 100 µM

c1ccc(SC23C4C5C6C4C2C6C53)nc1 (centres undefined)
inactive: NCI-H226 > 100 µM | CCRF-CEM > 100 µM | M14 > 100 µM | SN12C > 100 µM | CAKI-1 > 100 µM | RPMI-8226 > 39.5 µM | K562 > 100 µM | SF-295 > 100 µM | NCI-H460 > 100 µM | SK-MEL-2 > 100 µM | HCT-116 > 100 µM | NCI-H23 > 100 µM | HOP-62 > 100 µM | SK-OV-3 > 100 µM | TK-10 > 67.9 µM | IGROV-1 > 100 µM

O=C(CC(=O)c1cccc2ccccc12)C(=O)NC1C2CC3CC(C2)CC1C3 (centres undefined)
inactive: NCI-H226 > 100 µM | CCRF-CEM > 100 µM | M14 > 100 µM | SN12C > 100 µM | CAKI-1 > 100 µM | RPMI-8226 > 100 µM | K562 51.4 µM | SF-295 > 100 µM | NCI-H460 > 100 µM | HCT-116 > 100 µM | NCI-H23 > 100 µM | HOP-62 > 100 µM | SK-OV-3 > 100 µM | TK-10 > 100 µM | IGROV-1 > 100 µM

CN(C)C(=S)Nc1nnc(Nc2ccccc2)s1
inactive: NCI-H226 > 100 µM | CCRF-CEM > 100 µM | M14 > 100 µM | RXF 393 > 100 µM | SN12C > 100 µM | CAKI-1 > 100 µM | K562 > 100 µM | NCI-H460 > 100 µM | SK-MEL-2 > 100 µM | HCT-116 > 100 µM | NCI-H23 > 100 µM | HOP-62 > 100 µM | SK-OV-3 > 100 µM | IGROV-1 > 100 µM

COC(=O)/C=C/c1cc(OC)c(OC)c(OC)c1
inactive: NCI-H226 46.1 µM | CCRF-CEM > 100 µM | M14 > 100 µM | RXF 393 > 100 µM | SN12C > 100 µM | CAKI-1 > 100 µM | SF-295 > 100 µM | NCI-H460 > 100 µM | SK-MEL-2 > 100 µM | HCT-116 > 100 µM | NCI-H23 > 100 µM | HOP-62 > 100 µM | SK-OV-3 > 100 µM | TK-10 > 100 µM | IGROV-1 > 100 µM

Cc1ccc(C2(O)CC(c3ccc([N+](=O)[O-])o3)=NN2C(=O)COc2ccc(Cl)cc2)cc1 (centres undefined)
inactive: NCI-H226 17.1 µM | M14 4.93 µM | SN12C 5.18 µM | CAKI-1 12.6 µM | RPMI-8226 2.24 µM | K562 4.07 µM | SF-295 10.6 µM | NCI-H460 6.3 µM | SK-MEL-2 4.44 µM | HCT-116 3.85 µM | NCI-H23 5.2 µM | HOP-62 12.3 µM | SK-OV-3 15.3 µM | TK-10 15 µM | IGROV-1 11.4 µM

COc1ccc(/C(=N\NC(=N)N)C(c2ccc(OC)cc2)C2OC(=O)c3ccccc32)cc1 (centres undefined)
inactive: NCI-H226 > 100 µM | CCRF-CEM > 100 µM | M14 > 100 µM | RXF 393 > 100 µM | SN12C > 100 µM | CAKI-1 > 100 µM | RPMI-8226 > 100 µM | K562 > 100 µM | SF-295 > 100 µM | NCI-H460 > 100 µM | HCT-116 > 100 µM | NCI-H23 > 100 µM | HOP-62 > 100 µM | SK-OV-3 > 100 µM | IGROV-1 > 100 µM
